In one experiment the test system is EGFR (Del19/T790M/C797S). Put plainly: Cell degradation HTRF assay, BaF3-DTC cells. The class given is cell-based. Particulars: 16 h treatment; for DC50: HTRF; for DTC Dmax (%): maximum percentage of degradation. The protocol: (§1) Cell Degradation of Example 1-28
(§2) BaF3-LTC (L858R/T790M/C797S) and BaF3-DTC (Del19/T790M/C797S) cells are treated with compounds diluted in 0.2% DMSO cell culture medium and incubate for 16 h, 37° C., 5% CO2. The final concentration of compounds in all assay is start with 10 uM, 4-fold dilution, total 8 doses were included.
(§3) After 16 h treatment, add HTRF lysis buffer to each well; seal the plate and incubate 1 hour at room temperature on a plate shaker; Once the cells are lysed, 16 μL of cell lysate are transferred to a PE 384-well HTRF detection plate; 4 μL of pre-mixed HTRF antibodies are added to each well; Cover the plate with a plate sealer, spin 1000 rpm for 1 min, Incubate overnight at room temperature; Read on BMG PheraStar with HTRF protocol (337 nm-665 nm-620 nm). The inhibition (degradation) percentage of the compound was calculated by the following equation:
(§4) Inhibition percentage of Compound=100−100×(Signal−low control)/(High control−low control), wherein signal=each test compound group.
(§5) High control=Cell group with added DMSO and without compound, indicating microplate readings without EGFR degradation;
(§6) Dmax is the maximum percentage of inhibition (degradation).
(§7) The IC50 (DC50) value of a compound can be obtained by fitting the following equation
(§8) Y=Bottom+(TOP−Bottom)/(1+((C50/X)^hillslope))
(§9) Wherein, X and Y are known values, and IC50, Hillslope, Top and Bottom are the parameters obtained by fitting with software. Y is the inhibition percentage (calculated from the equation), X is the concentration of the compound; IC50 is the concentration of the compound when the 50% inhibition is reached. The smaller the IC50 value is, the stronger the inhibitory ability of the compound is. Vice versa, the higher the IC50 value is, the weaker the ability the inhibitory ability of the compound is; Hillslope represents the slope of the fitted curve, generally around 1*; Bottom represents the minimum value of the curve obtained by data fitting, which is generally 000±20%; Top represents the maximum value of the curve obtained by data fitting, which is generally 100%±20%. The experimental data were fitted by calculating and analyzing with Dotmatics data analysis software. When Dmax<50%, DC50 will be automatically assigned as larger than […].
(In TR-FRET formats the signal depends on donor and acceptor labels being close together.)

The next experiment concerns the target EGFR (L858R/T790M/C797S) (Homo sapiens, UniProt P00533, C797S/L858R/T790M). Put plainly: Cell degradation HTRF assay, BaF3-LTC cells. It is filed as cell-based. Particulars: 16 h treatment; for DC50: HTRF; for Dmax: maximum percentage of degradation. Also on record: expressed in transfected cells; host or cells: BaF3-LTC. The method, then:
as §1, §2, §3, §4, §5, §6, §7, §8, §9

Sequence of EGFR (L858R/T790M/C797S) (P00533 25-1210 T790M/C797S/L858R): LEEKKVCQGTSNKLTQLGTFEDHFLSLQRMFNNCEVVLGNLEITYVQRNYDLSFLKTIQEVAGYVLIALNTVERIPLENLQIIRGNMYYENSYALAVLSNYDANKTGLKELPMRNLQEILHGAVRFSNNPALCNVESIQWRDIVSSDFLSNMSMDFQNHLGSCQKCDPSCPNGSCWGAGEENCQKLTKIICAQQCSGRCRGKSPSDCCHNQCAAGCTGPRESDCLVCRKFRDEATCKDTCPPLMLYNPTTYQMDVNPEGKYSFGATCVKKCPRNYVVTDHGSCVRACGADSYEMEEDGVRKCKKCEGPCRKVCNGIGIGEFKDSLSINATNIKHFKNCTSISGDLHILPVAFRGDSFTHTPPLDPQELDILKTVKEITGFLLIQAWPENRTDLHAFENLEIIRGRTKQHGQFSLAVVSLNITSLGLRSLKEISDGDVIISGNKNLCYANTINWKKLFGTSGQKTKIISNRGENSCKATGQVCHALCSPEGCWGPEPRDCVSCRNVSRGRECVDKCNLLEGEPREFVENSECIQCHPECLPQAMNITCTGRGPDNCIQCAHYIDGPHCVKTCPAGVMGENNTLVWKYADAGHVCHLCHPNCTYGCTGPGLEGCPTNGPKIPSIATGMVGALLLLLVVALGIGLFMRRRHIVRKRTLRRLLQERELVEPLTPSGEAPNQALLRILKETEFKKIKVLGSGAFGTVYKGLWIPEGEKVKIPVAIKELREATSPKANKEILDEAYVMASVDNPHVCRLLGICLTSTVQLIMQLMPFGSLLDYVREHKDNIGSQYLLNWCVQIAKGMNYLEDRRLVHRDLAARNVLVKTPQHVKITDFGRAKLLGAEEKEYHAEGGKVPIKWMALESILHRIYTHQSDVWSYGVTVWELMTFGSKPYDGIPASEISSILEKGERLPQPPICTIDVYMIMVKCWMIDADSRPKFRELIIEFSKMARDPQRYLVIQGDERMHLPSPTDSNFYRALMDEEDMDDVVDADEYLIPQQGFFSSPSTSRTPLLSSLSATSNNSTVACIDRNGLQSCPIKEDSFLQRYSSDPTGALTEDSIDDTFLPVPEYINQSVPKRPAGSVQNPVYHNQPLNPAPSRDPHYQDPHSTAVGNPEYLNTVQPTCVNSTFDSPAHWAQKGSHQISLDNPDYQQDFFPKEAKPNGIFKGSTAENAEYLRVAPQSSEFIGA

As usually defined, the DC50 is the concentration at which degradation of the target reaches its halfway point. In general, Dmax refers to the greatest extent of degradation seen. Consider `CCc1cc(Nc2ncc(Br)c(Nc3cnc4ccccc4c3P(C)(C)=O)n2)c(OC)cc1N1CCC(N2CCN(CCC3CCN(c4cc(F)c(C5CCC(=O)NC5=O)c(F)c4)CC3)CC2)CC1` (stereo not drawn) [Example 1, 3-(4-(4-(2-(4-(1-(4-((5-bromo-4-((4-(dimethylphosphoryl)quinolin-3-yl)amino)pyrimidin-2-yl)amino)-2-ethyl-5-methoxyphenyl)piperidin-4-yl)piperazin-1-yl)ethyl)piperidin-1-yl)-2,6-difluorophenyl)piperidine-2,6-dione], for which, in the experiment on EGFR (Del19/T790M/C797S), the DC50 came to 10.4 nM and the “DTC Dmax (%)” value is on record as 96.55%. At EGFR (L858R/T790M/C797S), this compound displayed a DC50 of 25 nM and a Dmax of 90.7%.

As to `CCc1cc(Nc2ncc(Br)c(Nc3cnc4ccccc4c3P(C)(C)=O)n2)c(OC)cc1N1CCC(N2CCN(CCc3ccc(C4CCC(=O)NC4=O)c(F)c3)CC2)CC1` (stereo not drawn) [Example 2, 3-(4-(2-(4-(1-(4-((5-bromo-4-((4-(dimethylphosphoryl)quinolin-3-yl)amino)pyrimidin-2-yl)amino)-2-ethyl-5-methoxyphenyl)piperidin-4-yl)piperazin-1-yl)ethyl)-2-fluorophenyl)piperidine-2,6-dione], in the experiment with EGFR (Del19/T790M/C797S), the DC50 is 18.5 nM and the “DTC Dmax (%)” value came to 86.75%. At EGFR (L858R/T790M/C797S), the DC50 came out at 146 nM and the Dmax stood at 85%.

Take `CCc1cc(Nc2ncc(Br)c(Nc3cnc4ccccc4c3P(C)(C)=O)n2)c(OC)cc1N1CCC(N2CCN(C[C@H]3CCN(c4ccc5c(c4)CN(C4CCC(=O)NC4=O)C5=O)C3)CC2)CC1` (stereo partly drawn) [Example 4, 3-(5-((R)-3-((4-(1-(4-((5-bromo-4-((4-(dimethylphosphoryl)quinolin-3-yl)amino)pyrimidin-2-yl)amino)-2-ethyl-5-methoxyphenyl)piperidin-4-yl)piperazin-1-yl)methyl)pyrrolidin-1-yl)-1-oxoisoindolin-2-yl)piperidine-2,6-dione]: in the experiment on EGFR (Del19/T790M/C797S), the DC50 turned out to be 3.94 nM and the “DTC Dmax (%)” value was 91.36%. On EGFR (L858R/T790M/C797S), this compound yielded a DC50 of 7.75 nM and a Dmax of 90.5%.

Regarding `CCc1cc(Nc2ncc(Br)c(Nc3cnc4cccnc4c3P(C)(C)=O)n2)c(OC)cc1N1CCC(N2CCN(CCc3cc(F)c(C4CCC(=O)NC4=O)c(F)c3)CC2)CC1` (stereo not drawn) [Example 7, 3-(4-(2-(4-(1-(4-((5-bromo-4-((4-(dimethylphosphoryl)-1,5-naphthyridin-3-yl)amino)pyrimidin-2-yl)amino)-2-ethyl-5-methoxyphenyl)piperidin-4-yl)piperazin-1-yl)ethyl)-2,6-difluorophenyl)piperidine-2,6-dione], in the experiment on EGFR (Del19/T790M/C797S), the DC50 came to 15.5 nM and the “DTC Dmax (%)” value stood at 93.86%. On EGFR (L858R/T790M/C797S), this compound showed a DC50 of 45.3 nM and a Dmax of 82.7%.

For `CCc1cc(Nc2ncc(Br)c(Nc3cnc4c(C)cccc4c3P(C)(C)=O)n2)c(OC)cc1N1CCC(N2CCN(CCC3CCN(c4cc(F)c(C5CCC(=O)NC5=O)c(F)c4)CC3)CC2)CC1` (stereo not drawn) [Example 8, 3-(4-(4-(2-(4-(1-(4-((5-bromo-4-((4-(dimethylphosphoryl)-8-methylquinolin-3-yl)amino)pyrimidin-2-yl)amino)-2-ethyl-5-methoxyphenyl)piperidin-4-yl)piperazin-1-yl)ethyl)piperidin-1-yl)-2,6-difluorophenyl)piperidine-2,6-dione], in the experiment with EGFR (Del19/T790M/C797S), half-maximal degradation (DC50) was put at 11.8 nM and the “DTC Dmax (%)” value was determined as 96.88%. At EGFR (L858R/T790M/C797S), the DC50 is 30.2 nM and the Dmax was determined as 89.6%.

For the compound `CCc1cc(Nc2ncc(Br)c(Nc3cnc4cccnc4c3P(C)(C)=O)n2)c(OC)cc1N1CCC(N2CCN(CCC3CCN(c4cc(F)c(C5CCC(=O)NC5=O)c(F)c4)CC3)CC2)CC1` (stereo not drawn) [Example 9, 3-(4-(4-(2-(4-(1-(4-((5-bromo-4-((4-(dimethylphosphoryl)-1,5-naphthyridin-3-yl)amino)pyrimidin-2-yl)amino)-2-ethyl-5-methoxyphenyl)piperidin-4-yl)piperazin-1-yl)ethyl)piperidin-1-yl)-2,6-difluorophenyl)piperidine-2,6-dione], in the experiment with EGFR (Del19/T790M/C797S), half-maximal degradation (DC50) was put at 12.7 nM and the “DTC Dmax (%)” value is given as 96.14%. In addition, on EGFR (L858R/T790M/C797S), the DC50 was found to be 29.3 nM and the Dmax is 88%.

On to `CCc1cc(Nc2ncc(Br)c(Nc3cnc4c(C)cccc4c3P(C)(C)=O)n2)c(OC)cc1N1CCC(N2CCN(CCc3cc(F)c(C4CCC(=O)NC4=O)c(F)c3)CC2)CC1` (stereo not drawn) [Example 10, 3-(4-(2-(4-(1-(4-((5-bromo-4-((4-(dimethylphosphoryl)-8-methylquinolin-3-yl)amino)pyrimidin-2-yl)amino)-2-ethyl-5-methoxyphenyl)piperidin-4-yl)piperazin-1-yl)ethyl)-2,6-difluorophenyl)piperidine-2,6-dione], for which, in the experiment on EGFR (Del19/T790M/C797S), the DC50 was 24.8 nM and the “DTC Dmax (%)” value came out at 88.58%. Besides, on EGFR (L858R/T790M/C797S), the DC50 turned out to be 219 nM and the Dmax came out at 88.4%.

As to `CCc1cc(Nc2ncc(Br)c(Nc3cnc4ccccc4c3P(C)(C)=O)n2)c(OC)cc1N1CCC(N2CCN(CCc3cccc4c3cnn4C3CCC(=O)NC3=O)CC2)CC1` (stereo not drawn) [Example 12, 3-(4-(2-(4-(1-(4-((5-bromo-4-((4-(dimethylphosphoryl)quinolin-3-yl)amino)pyrimidin-2-yl)amino)-2-ethyl-5-methoxyphenyl)piperidin-4-yl)piperazin-1-yl)ethyl)-1H-indazol-1-yl)piperidine-2,6-dione], in the experiment on EGFR (Del19/T790M/C797S), the DC50 came out at 14.4 nM and the “DTC Dmax (%)” value amounted to 91.82%. On EGFR (L858R/T790M/C797S), this compound displayed a DC50 of 68.8 nM and a Dmax of 89.1%.

Regarding `CCc1cc(Nc2ncc(Br)c(Nc3cnc4ccccc4c3P(C)(C)=O)n2)c(OC)cc1N1CCC(N2CCN(CCc3cccc4nn(C5CCC(=O)NC5=O)cc34)CC2)CC1` (stereo not drawn) [Example 14, 3-(4-(2-(4-(1-(4-((5-bromo-4-((4-(dimethylphosphoryl)quinolin-3-yl)amino)pyrimidin-2-yl)amino)-2-ethyl-5-methoxyphenyl)piperidin-4-yl)piperazin-1-yl)ethyl)-2H-indazol-2-yl)piperidine-2,6-dione], in the experiment with EGFR (Del19/T790M/C797S), the DC50 came to 186 nM and the “DTC Dmax (%)” value is given as 81.73%. Further, on EGFR (L858R/T790M/C797S), half-maximal degradation (DC50) was put at 546 nM and the Dmax stood at 84.6%.

As to `CCc1cc(Nc2ncc(Br)c(Nc3cnc4ccccc4c3P(C)(C)=O)n2)c(OC)cc1N1CCC(N2CCN(C(=O)C3CCN(c4ccc5c(c4)n(C)c(=O)n5C4CCC(=O)NC4=O)CC3)CC2)CC1` (stereo not drawn) [Example 15, 3-(5-(4-(4-(1-(4-((5-bromo-4-((4-(dimethylphosphoryl)quinolin-3-yl)amino)pyrimidin-2-yl)amino)-2-ethyl-5-methoxyphenyl)piperidin-4-yl)piperazine-1-carbonyl)piperidin-1-yl)-3-methyl-2-oxo-2,3-dihydro-1H-benzo[d]imidazol-1-yl)piperidine-2,6-dione], in the experiment on EGFR (Del19/T790M/C797S), the DC50 was 1.23 nM and the “DTC Dmax (%)” value is 94.57%. On EGFR (L858R/T790M/C797S), this compound yielded a DC50 of 3.23 nM and a Dmax of 86.4%.

Take `CCc1cc(Nc2ncc(Br)c(Nc3cnc4ccccc4c3P(C)(C)=O)n2)c(OC)cc1N1CCC(N2CCN(C(=O)C3CN(c4ccc5c(c4)CN(C4CCC(=O)NC4=O)C5=O)C3)CC2)CC1` (stereo not drawn) [Example 16, 3-(5-(3-(4-(1-(4-((5-bromo-4-((4-(dimethylphosphoryl)quinolin-3-yl)amino)pyrimidin-2-yl)amino)-2-ethyl-5-methoxyphenyl)piperidin-4-yl)piperazine-1-carbonyl)azetidin-1-yl)-1-oxoisoindolin-2-yl)piperidine-2,6-dione]: in the experiment on EGFR (Del19/T790M/C797S), half-maximal degradation (DC50) was put at 2.14 nM and the “DTC Dmax (%)” value stood at 96.98%. Also, at EGFR (L858R/T790M/C797S), the DC50 came to 5.05 nM and the Dmax stood at 89.7%.

As to `CCc1cc(Nc2ncc(Br)c(Nc3cnc4ccccc4c3P(C)(C)=O)n2)c(OC)cc1N1CCC(N2CCN(C(=O)C3CCN(c4ccc5c(c4)C(C)(C)C(=O)N5C4CCC(=O)NC4=O)CC3)CC2)CC1` (stereo not drawn) [Example 17, 3-(5-(4-(4-(1-(4-((5-bromo-4-((4-(dimethylphosphoryl)quinolin-3-yl)amino)pyrimidin-2-yl)amino)-2-ethyl-5-methoxyphenyl)piperidin-4-yl)piperazine-1-carbonyl)piperidin-1-yl)-3,3-dimethyl-2-oxoindolin-1-yl)piperidine-2,6-dione], in the experiment on EGFR (Del19/T790M/C797S), the half-maximal degradation concentration (DC50) amounted to 1.94 nM and the “DTC Dmax (%)” value is reported as 96.58%. In addition, at EGFR (L858R/T790M/C797S), the DC50 turned out to be 3.86 nM and the Dmax worked out at 92.5%.

Values taken from patent US20240165243A1, “EGFR DEGRADERS AND METHODS OF USE” (BeiGene Switzerland GmbH, priority 2021, published 2024).
